Biological target: T1, FTO (Mus musculus, UniProt Q8BGW1)
T1 construct: His tag (pET-28a) with peptide linker (N); made in house; host or cells: E. coli BL21-Gold(DE3)
Experiment: 2-oxoglutarate decarboxylation (uncoupled 2-OG turnover) assay with purified FTO
Type: biochemical
Description: FTO was incubated with all necessary cofactors, in various buffers lacking a specific reagent (Fe^2+, ascorbate or DTT) and in the presence of N-oxalyl-glycine (NOG), a generic Fe^2+-2OG-dioxygenase inhibitor at a concentration of 0.5 mM. In addition to Fe^2+ (added in the form of (NH4)2Fe(II)(SO4)2) and 2OG, dithiothreitol (DTT) and sodium ascorbate were added to the reaction mixture: DTT is a reducing agent that helps to maintain Fe^2+.
These were diluted to a total volume of 100 μl with 50 mM TRIS, pH 7.5. All reagents were mixed and pipetted into a 5 ml plastic screw cap tube, the FTO was added to the tube as a separate drop. A 500 μl Eppendorf tube containing 200 μl Hyamine hydroxide (Fisher Scientific, CO2 trapping agent) was added to each tube and tubes were closed with a rubber septum. After incubation in an environmental shaker at 37° C. for half an hour, 200 μl methanol was added to the contents and the tubes were put on ice for 30 minutes to quench the reaction. The Eppendorf tubes containing the hyamine hydroxide were transferred to scintillation vials, mixed with 5 ml OptiPhase Liquid Scintillation Cocktail (Fisher Scientific) and total ^14C counts quantified using a Beckman L56500 Multi-Purpose Scintillation Counter.

T1 sequence (Q8BGW1 whole entry): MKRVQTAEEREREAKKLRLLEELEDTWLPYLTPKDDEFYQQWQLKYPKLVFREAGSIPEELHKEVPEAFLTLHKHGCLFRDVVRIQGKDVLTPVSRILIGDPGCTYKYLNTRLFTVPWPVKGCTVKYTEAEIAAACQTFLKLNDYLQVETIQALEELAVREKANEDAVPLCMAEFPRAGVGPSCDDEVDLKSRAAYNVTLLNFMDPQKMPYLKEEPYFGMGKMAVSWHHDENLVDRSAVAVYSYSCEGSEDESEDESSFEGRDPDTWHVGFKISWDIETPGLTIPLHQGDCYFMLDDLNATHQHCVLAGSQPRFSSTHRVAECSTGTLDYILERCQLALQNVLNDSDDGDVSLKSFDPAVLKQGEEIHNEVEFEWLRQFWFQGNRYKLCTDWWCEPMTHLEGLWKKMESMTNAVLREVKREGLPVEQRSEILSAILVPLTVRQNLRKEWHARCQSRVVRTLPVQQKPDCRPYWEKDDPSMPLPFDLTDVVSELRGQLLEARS

| Structure (SMILES) | Stimulation of FTO 2-OG turnover activity (uncoupled turnover) | Inhibition of FTO 2-OG turnover (uncoupled) (no methylated DNA substrate) |
| --- | --- | --- |
| O=S(=O)([O-])[O-].[Fe+2] [FeSO4] | stimulated |  |
| O=C(O)C(=O)N[C@H](Cc1ccccc1)C(=O)O [NOFD, N-oxalyl D-phenylalanine] |  | did not inhibit |
